The text below walks through data of patent publication US9211300B2 (priority 2012, dated 2015).

In general, IC50 refers to the concentration needed to halve the response being measured. What is called CC50 is the concentration giving 50% cytotoxicity. Usually EC50 stands for the concentration at which the effect is half-maximal.

The target in data set [1] is T1, wild-type HCV genotype 1b NS5B protein (recombinant HCV polymerase) (Hepatitis C virus genotype 1b, UniProt Q9WMX2).
T1 construct: HCV genotype 1b NS5B protein were used to generate recombinant HCV polymerases (with a deletion of the 21 carboxy terminal amino acids); made in house
In words: HCV Polymerase Enzyme Assay, wild-type. In kind it is biochemical. From the text:
(§1) Test compounds in the form of nucleoside triphosphates were examined for inhibitory activity against purified HCV polymerase in a standard assay. Bacterial expression constructs encoding the approximately 65 kDa HCV genotype 1b NS5B protein were used to generate recombinant HCV polymerases (with a deletion of the 21 carboxy terminal amino acids). Both the wild-type genotype 1b protein and protein containing the S282T mutation were expressed and purified for use in the enzymatic activity assay.
The enzymatic activity assay measured the inhibitory effect of increasing concentrations of test compound on the incorporation of α-[^33P]-labeled nucleotide into trichloroacetic acid-precipitable material. Recombinant polymerase and synthetic RNA template were combined in reaction buffer containing ribonucleoside triphosphates, α-[^33P]-labeled nucleotide and eight concentrations of test compound in three-fold dilutions. Reactions were incubated for two hours at 30° C.
(§2) Reactions were terminated by the addition of ice-cold trichloroacetic acid and sodium pyrophosphate to promote precipitation of newly-synthesized ribonucleic acid. Precipitable material from the reactions was collected by filtration onto 96-well filter plates, washed extensively with water, and quantified by liquid scintillation.
(§3) The inhibitory activity of test compounds was determined by fitting results to dose-response curves using XLfit software.

The conditions of data set [2]: CD-1 mice, liver triphosphate, normalised to 1 μmol/kg; for Ms Liver TP AUC (pmol · hr/g at 1 μmol/kg) following a single 2 mg/kg dose: single oral 2 mg/kg dose.
Experimental: A single oral dose of test compound at 10 mg/kg and/or 2 mg/kg in PEG 200 (dose volume 5 mL/kg) was administered to nine CD-1 male mice. Five untreated animals were used for the collection of control plasma and liver. Terminal plasma and liver samples were collected from three animals per time point at 4, 12 and 24 hours post dose. Liver specimens were collected from all animals immediately after the incision. Freezing forceps stored in liquid nitrogen were used to freeze the liver before excision. Only liver samples were analyzed for triphosphate levels.
Liver samples were analyzed for the active species nucleoside triphosphate by LC-MS/MS. The triphosphate levels were assayed by homogenizing (on ice) a known weight of mouse liver with 4× volume of 0.95 M trichloroacetic acid (TCA) in water. Internal standard solution was added to the homogenate and mixed. Sample homogenates were centrifuged at 16.1 krpm for 5 minutes. Supernatants were transferred to 96 well plates and injected onto the LC-MS/MS system. The samples were chromatographed on a Luna NH2 column using a gradient system of ammonium acetate (1 mM to 20 mM and pH 8.0 to pH 10.0) in water and acetonitrile (70:30). The analyte was detected and quantified by tandem mass spectrometry using the analyte specific MRM transition on an API4000 equipped with a Turbo Ionspray® interface.
Data set [3] can be described thus: Cytotoxicity evaluation, CellTiter-Blue Cell Viability Assay. In kind it is cell-based. Particulars: human, Zluc cells, read-out: HCV Replicon CC50. The method, then: (§4) For cytotoxicity evaluation, Zluc cells were treated with test compound as described herein, and cell viability was monitored using the CellTiter-Blue Cell Viability Assay (Promega) by adding 20 μL of the assay solution to each well. The plates were then incubated at 37° C./5% CO2 for at least 3 hours.

Data set [4] is described as follows: Liver triphosphate after a single oral dose in cynomolgus monkeys. It is filed as in vivo. The procedure:
For Compound 2b, isomer 1, a single oral dose at 10 mg/kg in PEG 200 (dose volume 3 mL/kg) was administered to three cynomolgus monkeys. One Untreated animal was used for the collection of control liver. Terminal liver samples were collected from three animals at 6 hours post dose.

The subject of data set [5] is HCV genotype 1b replicon. The data set can be described thus: HCV Replicon Assay (Zluc, luciferase). In kind it is cell-based. Particulars: Zluc cells (Huh-7-derived), 72 hours of incubation. The method, then:
Huh-7-derived cell line (Zluc) that harbors an HCV genotype 1b replicon and a luciferase reporter gene was grown in Dulbecco's Modified Eagle Medium (DMEM) supplemented with 10% fetal bovine serum, 2 mM GlutaMAX, 1% MEM nonessential amino acids, 100 IU/mL penicillin, 100 μg/mL streptomycin, and 0.5 mg/mL Geneticin® (G418). For dose response testing the cells were seeded in 96-well plates at 7.5×10^3 cells per well in a volume of 50 μL, and incubated at 37° C./5% CO2. Drug solutions were made up freshly in Huh-7 media as 2× stocks. Ten additional 5-fold dilutions were prepared from these stocks in DMEM without G418. At least three hours after Zluc cells were seeded, drug treatment was initiated by adding 50 μL of drug dilutions to the plates in duplicate. Final concentrations of drug ranged from 100 μM to […]. Cells were then incubated at 37° C./5% CO2. Alternatively, compounds were tested at two concentrations (1 μM and 10 μM). […] For this, media was removed from the plates via gentle tapping. Fifty microliters of ONE-glo luciferase assay reagent was added to each well. The plates were shaken gently for 3 min at room temperature and luminescence was measured on a Victor^3 V 1420 multilabel counter (Perkin Elmer) with a 1 second read time using a 700 nm cut-off filter. The EC50 values were calculated from dose response curves from the resulting best-fit equations determined by Microsoft Excel and XLfit 4.1 software. When screening at two fixed concentrations, the results were expressed as % inhibition at 1 μM and 10 μM.

In data set [6] the test system is Zluc cells. The data set can be described thus: Cytotoxicity evaluation, CellTiter-Blue Cell Viability Assay. In kind it is cell-based. The following applies: read-out: HCV Replicon CC50. The procedure:
as §4
A general note: Alamar Blue is a resazurin reagent that responds to reducing activity.

The target in data set [7] is T2, HCV genotype 1b NS5B protein containing the S282T mutation (Hepatitis C virus genotype 1b, UniProt Q9WMX2, S2701T).
T2 construct: HCV genotype 1b NS5B protein were used to generate recombinant HCV polymerases (with a deletion of the 21 carboxy terminal amino acids); made in house
In words: HCV Polymerase Enzyme Assay, S282T. The following applies: nucleoside triphosphates; genotype 1b NS5B with S282T mutation. In kind it is biochemical.
Text: as §1
The enzymatic activity assay measured the inhibitory effect of increasing concentrations of test compound on the incorporation of α-[^33P]-labeled nucleotide into trichloroacetic acid-precipitable material. Recombinant polymerase and synthetic RNA template were combined in reaction buffer containing ribonucleoside triphosphates, α-[^33P]-labeled nucleotide and eight concentrations of test compound in three-fold dilutions. […]
as §2, §3

Setting [8] is: read-out: Wild-Type IC50, nucleoside triphosphates, wild-type genotype 1b NS5B.

Like-named read-outs stand apart in the source and are kept apart here. Bounds are passed on as bounds.

`Nc1ccn(C2O[C@](F)(COP(=O)(O)OP(=O)(O)OP(=O)(O)O)[C@@H](O)[C@H]2O)c(=O)n1` (stereo partly shown) [Compound 105]: the half-maximal inhibitory concentration (IC50) in data set [1] (setting [8]) lay in the range of 250 to 1000 nM.

In the case of `CC(C)OC(=O)[C@H](C)NP(=O)(OC[C@@]1(F)O[C@@H](n2ccc(=O)[nH]c2=O)[C@H](O)[C@@H]1O)Oc1ccccc1` (single isomer, unassigned) [Compound 2b Diastereomer 1], the “Ms Liver TP AUC (pmol · hr/g at 1 μmol/kg) following a single 2 mg/kg dose” value in data set [2] is given as “+++++ (1600 < +++++)”. Moreover, the “Ms Liver TP AUC (pmol · hr/g at 1 μmol/kg) following a single 10 mg/kg dose” value in data set [2] (single oral 10 mg/kg dose) is on record as “+++++ (1600 < +++++)”. Also, the half-maximal cytotoxic concentration (CC50) in data set [3] is over 50 µM. The “Nucleoside triphosphate in Liver C6 (pmol/g) at 1 μmol/kg” value in data set [4] (6 hr post dose, normalised to 1 μmol/kg) is “+ (+ ≦ 10 pmol/g)”. Moreover, the “Nucleoside triphosphate in Liver C6 (pmol/g) at 10 mg/kg” value in data set [4] (single oral 10 mg/kg, concentration at 6 hr post dose) is “++++ (100 pmol/g < ++++ ≦ 160 pmol/g)”. In data set [5] (listed as 2b Diastereomer 1), the half-maximal effective concentration (EC50) is over 10000 nM.

For the molecule `CC(C)OC(=O)[C@H](C)NP(=O)(OC[C@@]1(F)O[C@@H](n2ccc(=O)[nH]c2=O)[C@H](O)[C@@H]1O)Oc1ccccc1` (single isomer, unassigned) [Compound 2b Diastereomer 2], the “Ms Liver TP AUC (pmol · hr/g at 1 μmol/kg) following a single 2 mg/kg dose” value in data set [2] is “+++++ (1600 < +++++)”. The half-maximal cytotoxic concentration (CC50) in data set [6] was over 50 µM. The concentration for a half-maximal effect (EC50) in data set [5] (listed as 2b Diastereomer 2) lay within 1000 to 10000 nM.

Turning to `O=c1ccn(C2O[C@](F)(COP(=O)(O)OP(=O)(O)OP(=O)(O)O)[C@@H](O)[C@H]2O)c(=O)[nH]1` (stereo partly shown) [Compound 102], the IC50 in data set [1] (setting [8]) was 250 to 1000 nM; in data set [7] it was under 250 nM.

As for `Nc1ncnc2c1ncn2[C@@H]1O[C@](F)(COP(=O)(O)OP(=O)(O)OP(=O)(O)O)[C@@H](O)[C@H]1O` [Compound 106], the half-inhibitory concentration (IC50) in data set [1] was over 10000 nM.

Regarding `O=c1[nH]c(=O)n([C@@H]2O[C@](F)(COP(=O)(O)OP(=O)(O)OP(=O)(O)O)[C@@H](O)[C@H]2O)cc1Br` [Compound 104], the half-inhibitory concentration (IC50) in data set [1] was 1000 to 10000 nM.

Turning to `C[C@]1(O)[C@H](n2cc(Br)c(=O)[nH]c2=O)O[C@](F)(COP(=O)(O)OP(=O)(O)OP(=O)(O)O)[C@H]1O` [Compound 101], in data set [1], the IC50 lay within 1000 to 10000 nM.

In the case of `CC(C)OC(=O)[C@H](C)NP(=O)(OC[C@@]1(F)O[C@@H](n2cnc3c(=O)[nH]c(N)nc32)[C@@H](O)C1O)Oc1ccccc1` (single isomer, unassigned) [Compound 3b Diastereomer 2], the cytotoxic concentration (CC50) in data set [3] was over 50 µM. Also, in data set [5] (Hepatitis C virus, 72 h), the EC50 fell in the range of 250 to 1000 nM.

`Nc1nc2c(ncn2[C@@H]2O[C@](F)(COP(=O)(O)OP(=O)(O)OP(=O)(O)O)[C@@H](O)[C@H]2O)c(=O)[nH]1` [Compound 103]: the half-inhibitory concentration (IC50) in data set [1] and in data set [7] was under 250 nM each time.
